Results taken from ChEMBL document CHEMBL1221281, “Discovery of 2-(4-((1H-1,2,4-triazol-1-yl)methyl)-5-(4-bromophenyl)-1-(2-chlorophenyl)-1H-pyrazol-3-yl)-5-tert-butyl-1,3,4-thiadiazole (GCC2680) as a potent, selective and orally efficacious cannabinoid-1 receptor antagonist” (Bioorg Med Chem, 2010).
The source made the active and inactive calls. No cut-off for these calls is given here.

Experiments:
Rattus norvegicus [1] = assay: Acute toxicity in rat assessed as mortality at 500 mg/kg, po qd for 7 days; format: organism-based; parameters: dose 500 mg/kg, route oral; conditions: in vivo, 168 h
Mus musculus [2] = assay: Antiobesity activity in po dosed diet-induced obesity C57BL/6 mouse model assessed as reduction of body weight administered qd for 13 days; format: functional, organism-based
Rattus norvegicus [3] = assay: Clast in Sprague-Dawley rat at 5 mg/kg, po; format: ADME, organism-based; parameters: dose 5 mg/kg, route oral; conditions: in vivo
Cytochrome P450 3A4 = Cytochrome P450 3A4 (Homo sapiens, UniProt P08684); assay: Inhibition of CYP3A4 in human liver microsomes after 30 mins; format: ADME, Microsome
[4] = Tmax in Sprague-Dawley rat at 5 mg/kg, po; format: ADME, organism-based; parameters: dose 5 mg/kg, route oral; conditions: in vivo
Rattus norvegicus [5] = assay: AUC (0 to infinity) in Sprague-Dawley rat at 1 mg/kg, iv; format: ADME, organism-based, Plasma; parameters: time infinity, dose 1 mg/kg, route intravenous; conditions: in vivo
[6] = Half life in Sprague-Dawley rat at 5 mg/kg, po; format: ADME, organism-based; parameters: dose 5 mg/kg, route oral; conditions: in vivo
HEK293 = assay: Cytotoxicity against human HEK293 cells; format: cell-based
Mus musculus [7] = assay: Antidiabetic activity in db/db mouse at 10 mg/kg, po qd for 14 days; format: functional, organism-based; parameters: dose 10 mg/kg
Cytochrome P450 2D6 = Cytochrome P450 2D6 (Homo sapiens, UniProt P10635); assay: Inhibition of CYP2D6 in human liver microsomes after 30 mins; format: ADME, Microsome
Rattus norvegicus [8] = assay: Acute toxicity in rat assessed as mortality at 250 mg/kg, po qd for 7 days; format: organism-based; parameters: dose 250 mg/kg, route oral; conditions: in vivo, 168 h
Rattus norvegicus [9] = assay: Antiobesity activity in diet-induced obesity Sprague-Dawley rat model assessed as reduction of body weight administered at 10 mg/kg, po qd for 13 days; format: functional; parameters: scale not given: the % may be the effect or the level left
[10] = Ratio of drug level in brain to plasma in Sprague-Dawley rat; format: ADME
[11] = Oral bioavailability in Sprague-Dawley rat at 5 mg/kg, po; format: ADME, organism-based; conditions: in vivo
Cannabinoid receptor 2 = Cannabinoid receptor 2 (Homo sapiens, UniProt P34972); assay: Displacement of [3H]WIN-55212-2 from human CB2 receptor expressed in CHO-K1 cells after 1 hr by liquid scintillation counting; format: cell-based
Cytochrome P450 2C9 = Cytochrome P450 2C9 (Homo sapiens, UniProt P11712); assay: Inhibition of CYP2C9 in human liver microsomes after 30 mins; format: ADME, Microsome
Mus musculus [12] = assay: Antiobesity activity in diet-induced obesity C57BL/6 mouse model assessed as reduction of body weight at 20 mg/kg, po qd for 13 days; format: functional; parameters: scale not given: the % may be the effect or the level left
Mus musculus [13] = assay: Antiobesity activity in diet-induced obesity C57BL/6 mouse model assessed as reduction of body weight at 10 mg/kg, po qd for 14 days; format: functional; parameters: scale not given: the % may be the effect or the level left
[14] = Cmax in Sprague-Dawley rat at 5 mg/kg, po; format: ADME, organism-based; parameters: dose 5 mg/kg, route oral; conditions: in vivo
Mus musculus [15] = assay: Antiobesity activity in diet-induced obesity C57BL/6 mouse model assessed as reduction of body weight at 3 mg/kg, po qd for 13 days; format: functional
Rattus norvegicus [16] = assay: AUC (0 to infinity) in Sprague-Dawley rat at 5 mg/kg, po; format: ADME, organism-based, Plasma; parameters: time infinity, dose 5 mg/kg, route oral; conditions: in vivo
Mus musculus [17] = assay: Antidiabetic activity in diet-induced obesity mouse model at 10 mg/kg, po qd for 14 days; format: functional, organism-based; parameters: dose 10 mg/kg
[18] = Mutagenic activity in Salmonella Typhimurium TA100 assessed as number of spontaneous and drug-induced revertants after 48 hrs by Ames test; format: toxicity; conditions: salmonella enterica subsp. enterica serovar typhimurium
Rattus norvegicus [19] = assay: Acute toxicity in rat assessed as mortality at 1000 mg/kg, po qd for 7 days; format: organism-based; parameters: dose 1000 mg/kg, route oral; conditions: in vivo, 168 h
Cannabinoid receptor 1 = Cannabinoid receptor 1 (Rattus norvegicus, UniProt P20272)
Description: Displacement of [3H]CP-55940 from CB1 receptor in Sprague-Dawley rat cerebellum after 1 hr by liquid scintillation counting

Mus musculus [20] = assay: Antiobesity activity in po dosed diet-induced obesity C57BL/6 mouse model assessed as reduction mean white adipocytes diameter qd for 14 days; format: functional, organism-based
Vero = assay: Cytotoxicity against african green monkey Vero cells; format: cell-based; conditions: Chlorocebus sabaeus
Nucleic Acid = assay: Induction of DNA damage up to 50 uM after 2 hrs by comet assay; format: nucleic-acid assay
[21] = Cmax in Sprague-Dawley rat at 1 mg/kg, iv; format: ADME, organism-based; parameters: dose 1 mg/kg, route intravenous; conditions: in vivo
Rattus norvegicus [22] = assay: Acute toxicity in rat assessed as mortality at 2000 mg/kg, po; format: organism-based; parameters: dose 2000 mg/kg, route oral; conditions: in vivo
[23] = target: Voltage-gated inwardly rectifying potassium channel KCNH2 (Homo sapiens, UniProt Q12809); assay: Inhibition of human ERG at holding potential of -80 mV to +40 mV
Cytochrome P450 1A2 = target: T1, Cytochrome P450 1A2 (Homo sapiens, UniProt P05177); assay: Inhibition of CYP1A2 in human liver microsomes after 30 mins; format: ADME, Microsome
T1 sequence (P05177 whole entry): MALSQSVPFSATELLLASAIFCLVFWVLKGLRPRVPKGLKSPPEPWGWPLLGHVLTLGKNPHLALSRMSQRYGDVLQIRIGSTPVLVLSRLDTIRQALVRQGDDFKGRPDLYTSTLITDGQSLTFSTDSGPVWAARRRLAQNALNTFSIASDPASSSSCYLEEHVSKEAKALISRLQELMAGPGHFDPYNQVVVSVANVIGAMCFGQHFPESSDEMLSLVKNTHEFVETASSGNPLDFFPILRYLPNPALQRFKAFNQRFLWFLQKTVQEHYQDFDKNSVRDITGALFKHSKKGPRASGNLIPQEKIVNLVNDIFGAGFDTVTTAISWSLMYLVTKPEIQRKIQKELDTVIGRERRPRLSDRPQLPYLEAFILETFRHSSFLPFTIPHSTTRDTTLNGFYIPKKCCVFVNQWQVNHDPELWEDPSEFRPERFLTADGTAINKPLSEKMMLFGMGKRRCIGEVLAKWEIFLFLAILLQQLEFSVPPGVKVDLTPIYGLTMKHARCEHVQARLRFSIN

Rattus norvegicus [24] = assay: Acute toxicity in rat assessed as mortality at 1500 mg/kg, po; format: organism-based; parameters: dose 1500 mg/kg, route oral; conditions: in vivo
Mus musculus [25] = assay: Antiobesity activity in diet-induced obesity C57BL/6 mouse model assessed as reduction of body weight at 10 mg/kg, po qd for 13 days; format: functional; parameters: scale not given: the % may be the effect or the level left
[26] = Acute toxicity in po dosed rat assessed as mortality; format: organism-based; conditions: in vivo
[27] = Half life in Sprague-Dawley rat at 1 mg/kg, iv; format: ADME, organism-based; parameters: dose 1 mg/kg, route intravenous; conditions: in vivo
[28] = Clearance in Sprague-Dawley rat at 1 mg/kg, iv; format: ADME, organism-based; parameters: dose 1 mg/kg, route intravenous; conditions: in vivo
Rattus norvegicus [29] = assay: Clast in Sprague-Dawley rat at 1 mg/kg, iv; format: ADME, organism-based; parameters: dose 1 mg/kg, route intravenous; conditions: in vivo
[30] = Cytotoxicity against human HuH7 cells; format: cell-based; conditions: Huh-7
[31] = Selectivity ratio of IC50 for human CB2 receptor to IC50 for CB1 receptor in Sprague-Dawley rat cerebellum; format: tissue-based
Mus musculus [32] = assay: Antidiabetic activity in ob/ob mouse at 10 mg/kg, po qd for 14 days; format: functional, organism-based; parameters: dose 10 mg/kg
Rattus norvegicus [33] = assay: Acute toxicity in rat assessed as mortality at 125 mg/kg, po qd for 7 days; format: organism-based; parameters: dose 125 mg/kg, route oral; conditions: in vivo, 168 h
Rattus norvegicus [34] = assay: Acute toxicity in po dosed rat; format: organism-based; conditions: in vivo
HCT-116 = assay: Cytotoxicity against human HCT116 cells; format: cell-based

Cytochrome P450 2C9, sequence (P11712 whole entry): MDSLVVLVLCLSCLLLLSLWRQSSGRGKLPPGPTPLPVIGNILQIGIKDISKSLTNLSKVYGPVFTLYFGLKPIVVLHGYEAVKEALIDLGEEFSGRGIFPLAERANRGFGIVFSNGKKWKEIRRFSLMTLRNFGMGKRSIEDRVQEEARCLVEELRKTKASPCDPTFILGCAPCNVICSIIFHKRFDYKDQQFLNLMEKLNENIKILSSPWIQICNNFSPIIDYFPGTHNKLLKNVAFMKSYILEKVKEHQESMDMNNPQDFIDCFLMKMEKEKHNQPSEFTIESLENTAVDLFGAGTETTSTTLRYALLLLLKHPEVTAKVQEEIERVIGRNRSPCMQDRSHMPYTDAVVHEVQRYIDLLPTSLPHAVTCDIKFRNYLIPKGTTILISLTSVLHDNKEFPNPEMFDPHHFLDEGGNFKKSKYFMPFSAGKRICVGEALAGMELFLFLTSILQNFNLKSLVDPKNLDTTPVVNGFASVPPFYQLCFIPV
Voltage-gated inwardly rectifying potassium channel KCNH2, sequence (Q12809 whole entry): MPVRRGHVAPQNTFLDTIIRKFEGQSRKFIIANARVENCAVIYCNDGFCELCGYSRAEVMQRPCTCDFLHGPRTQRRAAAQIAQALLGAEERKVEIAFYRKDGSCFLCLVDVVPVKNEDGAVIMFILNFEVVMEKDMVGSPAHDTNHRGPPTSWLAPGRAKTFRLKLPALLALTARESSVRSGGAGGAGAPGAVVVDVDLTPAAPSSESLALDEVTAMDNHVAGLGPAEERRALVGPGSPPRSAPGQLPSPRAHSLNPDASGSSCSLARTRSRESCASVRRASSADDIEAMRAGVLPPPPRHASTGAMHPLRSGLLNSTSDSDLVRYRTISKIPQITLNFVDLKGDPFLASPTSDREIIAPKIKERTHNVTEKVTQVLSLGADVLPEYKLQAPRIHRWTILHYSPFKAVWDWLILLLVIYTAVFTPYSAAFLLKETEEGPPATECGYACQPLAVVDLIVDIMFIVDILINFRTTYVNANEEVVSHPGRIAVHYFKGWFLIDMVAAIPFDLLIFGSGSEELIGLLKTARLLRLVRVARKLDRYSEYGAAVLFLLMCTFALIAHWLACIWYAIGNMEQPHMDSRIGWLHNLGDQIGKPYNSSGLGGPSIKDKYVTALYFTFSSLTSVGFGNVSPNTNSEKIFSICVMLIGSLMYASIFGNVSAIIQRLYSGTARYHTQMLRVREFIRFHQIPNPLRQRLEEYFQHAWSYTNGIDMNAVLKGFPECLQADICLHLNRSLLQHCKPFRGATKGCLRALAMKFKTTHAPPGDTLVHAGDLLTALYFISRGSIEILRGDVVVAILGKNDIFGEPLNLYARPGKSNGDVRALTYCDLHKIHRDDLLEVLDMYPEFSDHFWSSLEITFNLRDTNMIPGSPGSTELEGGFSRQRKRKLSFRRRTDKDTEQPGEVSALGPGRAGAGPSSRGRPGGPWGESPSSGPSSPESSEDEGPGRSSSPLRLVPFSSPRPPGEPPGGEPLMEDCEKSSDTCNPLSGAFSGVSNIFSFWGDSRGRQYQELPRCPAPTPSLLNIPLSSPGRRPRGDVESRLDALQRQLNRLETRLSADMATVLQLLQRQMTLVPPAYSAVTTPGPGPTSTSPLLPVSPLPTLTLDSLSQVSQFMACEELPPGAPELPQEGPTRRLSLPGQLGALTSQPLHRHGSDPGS
Cannabinoid receptor 2, sequence (P34972 whole entry): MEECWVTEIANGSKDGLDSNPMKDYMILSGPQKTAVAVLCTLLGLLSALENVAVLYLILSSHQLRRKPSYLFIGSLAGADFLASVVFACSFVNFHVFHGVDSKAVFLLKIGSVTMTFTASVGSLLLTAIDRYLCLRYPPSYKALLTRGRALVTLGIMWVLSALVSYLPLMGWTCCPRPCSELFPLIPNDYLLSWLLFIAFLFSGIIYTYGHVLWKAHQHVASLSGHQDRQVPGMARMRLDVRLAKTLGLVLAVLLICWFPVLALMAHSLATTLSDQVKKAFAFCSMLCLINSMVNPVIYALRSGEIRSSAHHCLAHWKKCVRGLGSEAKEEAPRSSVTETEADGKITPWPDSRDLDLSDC
Cytochrome P450 3A4, sequence (P08684 whole entry): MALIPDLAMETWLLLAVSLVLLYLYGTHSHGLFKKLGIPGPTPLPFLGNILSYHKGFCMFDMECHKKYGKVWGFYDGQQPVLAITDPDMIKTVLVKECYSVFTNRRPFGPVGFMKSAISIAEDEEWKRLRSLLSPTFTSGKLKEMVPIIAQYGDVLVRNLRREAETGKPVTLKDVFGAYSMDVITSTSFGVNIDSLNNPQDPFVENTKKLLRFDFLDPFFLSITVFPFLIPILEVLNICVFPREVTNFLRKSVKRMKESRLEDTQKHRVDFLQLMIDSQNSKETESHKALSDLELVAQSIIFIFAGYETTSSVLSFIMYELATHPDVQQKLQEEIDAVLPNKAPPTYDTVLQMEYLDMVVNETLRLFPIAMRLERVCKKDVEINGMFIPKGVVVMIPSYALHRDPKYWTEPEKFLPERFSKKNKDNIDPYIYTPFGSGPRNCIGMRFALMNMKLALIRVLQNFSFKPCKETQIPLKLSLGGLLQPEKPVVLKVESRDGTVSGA
Cytochrome P450 2D6, sequence (P10635 whole entry): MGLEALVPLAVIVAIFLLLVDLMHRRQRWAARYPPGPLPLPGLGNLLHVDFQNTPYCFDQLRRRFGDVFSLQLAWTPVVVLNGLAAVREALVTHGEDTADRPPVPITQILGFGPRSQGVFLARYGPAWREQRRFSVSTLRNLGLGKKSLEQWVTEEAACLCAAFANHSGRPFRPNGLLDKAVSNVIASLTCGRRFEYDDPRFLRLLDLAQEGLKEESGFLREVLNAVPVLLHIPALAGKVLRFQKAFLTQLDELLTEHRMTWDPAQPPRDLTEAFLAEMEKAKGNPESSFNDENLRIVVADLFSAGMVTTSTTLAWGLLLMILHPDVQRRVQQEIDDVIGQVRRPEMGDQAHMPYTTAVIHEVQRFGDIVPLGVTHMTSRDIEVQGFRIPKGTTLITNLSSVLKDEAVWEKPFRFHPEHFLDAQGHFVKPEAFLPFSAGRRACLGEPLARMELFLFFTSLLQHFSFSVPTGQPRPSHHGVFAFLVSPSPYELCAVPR
Cannabinoid receptor 1, sequence (P20272 whole entry): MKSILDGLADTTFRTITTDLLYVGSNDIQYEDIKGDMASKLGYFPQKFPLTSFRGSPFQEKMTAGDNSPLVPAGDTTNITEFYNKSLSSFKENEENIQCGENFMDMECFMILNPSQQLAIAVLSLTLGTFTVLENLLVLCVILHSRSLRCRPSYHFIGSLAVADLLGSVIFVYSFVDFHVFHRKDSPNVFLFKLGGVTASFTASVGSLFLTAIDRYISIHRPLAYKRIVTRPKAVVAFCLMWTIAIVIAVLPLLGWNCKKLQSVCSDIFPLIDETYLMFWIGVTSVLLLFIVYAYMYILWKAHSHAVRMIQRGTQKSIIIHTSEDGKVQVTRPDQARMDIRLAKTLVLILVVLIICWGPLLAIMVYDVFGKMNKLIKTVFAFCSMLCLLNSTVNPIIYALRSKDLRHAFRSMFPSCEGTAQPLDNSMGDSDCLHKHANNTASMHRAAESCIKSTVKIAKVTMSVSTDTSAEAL

CC(C)(C)c1nnc(-c2nn(-c3ccccc3Cl)c(-c3ccc(Br)cc3)c2Cn2cncn2)s1
Activity (Rattus norvegicus [1]): Non-toxic | Activity (Mus musculus [2]): Dose-dependent effect | Clast (Rattus norvegicus [3]): 0.03 µg/mL | IC50 (Cytochrome P450 3A4): > 20 µM | Tmax [4]: 1 h | AUC (Rattus norvegicus [5]): 119.9 min/µg/mL | half-life [6]: 427 min | EC50 (HEK293): > 100 µM | Activity (Mus musculus [7]): Active | IC50 (Cytochrome P450 2D6): > 20 µM | Activity (Rattus norvegicus [8]): Non-toxic | Activity (Rattus norvegicus [9]): 15.59% | BPR [10]: 58% | bioavailability [11]: 61.7% | IC50 (Cannabinoid receptor 2): 549 nM | IC50 (Cytochrome P450 2C9): > 20 µM | Activity (Mus musculus [12]): 38.06% | Activity (Mus musculus [13]): 32.55% | Cmax [14]: 1530 ng/mL | Activity (Mus musculus [15]): Active | AUC (Rattus norvegicus [16]): 369.72 min/µg/mL | Activity (Mus musculus [17]): Active | Activity [18]: Non-toxic | Activity (Rattus norvegicus [19]): Non-toxic | IC50 (Cannabinoid receptor 1): 0.681 nM | Activity (Mus musculus [20]): Dose-dependent effect | EC50 (Vero): > 100 µM | Activity (Nucleic Acid): Non-toxic | Cmax [21]: 2500 ng/mL | Activity (Rattus norvegicus [22]): Non-toxic | IC50 [23]: 10.5 µM | IC50 (Cytochrome P450 1A2): > 20 µM | Activity (Rattus norvegicus [24]): Non-toxic | Activity (Mus musculus [25]): 34.9% | LD50 [26]: > 2000 mg/kg | half-life [27]: 318 min | clearance [28]: 10.7 mL/min/kg | Clast (Rattus norvegicus [29]): 0.05 µg/mL | EC50 [30]: > 100 µM | Ratio IC50 [31]: 807 | Activity (Mus musculus [32]): Active | Activity (Rattus norvegicus [33]): Non-toxic | Activity (Rattus norvegicus [34]): 125 mg/kg | EC50 (HCT-116): > 100 µM
